The text below walks through data of patent publication US11582969B2, “Non-nematicidal composition and use thereof” (BioAtlantis Limited, priority 2013, dated 2023).

Marks after values point to notes of the source that are not given here.

Test [1] has as its system potatoes grown in plots infested with Globodera pallida. Put plainly: Field trial 2013: potato yield with isolated bioactives in plots infested with Globodera pallida. The conditions noted are these: 2013, average yield per drill (2.59 m^2). Type of test: in vivo, Solanum tuberosum. From the text: Differences in efficacy achieved with Composition 1 and Composition 2 in field trials between 2008-2012 pointed to a differential effect of bioactive levels within the two compositions (Example 1). Laboratory trials on grass species grown in the presence of Meloidogyne minor identified fucan (fucoidan) as one of the bioactives responsible for enhancing growth (Example 2). Despite lower levels of fucoidan, Composition 1 also achieved equivalent increases in root growth in the same trial as compared with the purified fucoidan. […] A field trial was undertaken in 2013 to further determine which bioactives or combinations of bioactives are responsible for conferring enhancements in total and marketable yield in nematode infested growth media. As in previous trials, the forms of glucan and fucan used were laminarin and fucoidan respectively.
Bioactives were isolated and stock solutions prepared to contain glucan alone, mannitol alone, glucan+mannitol, fucan+mannitol and glucan+fucan. The efficacy of the bioactive fractions were assessed in plots known to be infested with Globodera pallida. Treatments were fully randomized with plots of approximately 16 m^2 in area and 6 drills wide. Twelve tubers were planted per drill. One metre spacing was placed between blocks with two drills fallow between treatments. The dimensions of the drills were 0.7 meters wide and 3.7 meters in length. The cultivar Navan, (Solanum tuberosum L. ev. Navan) was planted and compositions applied by foliar spray at 50% post-emergence and at approximately seven day intervals thereafter. Foliar spray ceased once senescence was noticed. For each of the 5 treatments, a total of 621 g of bioactives was applied per Ha. A nematicidal treatment, Vydate, was applied at full rate as a separate treatment. Standard compound fertilizers and fungicides were applied at recommended rates and intervals. The crop was harvested in November. Total harvest weight and marketable yield (>35 mm category) was measured, with comparisons between bioactive treatments and nematicide made by means of One-Way ANOVA.

A further test has as its system Creeping bentgrass. As to the kind of experiment: Pre-soaking seeds: early root growth. It is filed as in vivo. The conditions noted are these: seeds pre-soaked 16 hours, 7 day period, n = 10. How it is done:
(§1) The effects of Composition 1 and fucoidan on Creeping bentgrass and Perennial ryegrass root growth were examined in the laboratory setting in the presence or absence of plant parasitic nematodes in 2010. Seeds were pre-soaked in test materials for 16 hours each and left to germinate on wet USGA sand at 16° C. Roots were analysed using WinRHIZO image analysis system, following a 7 day period to assess mean root length following applications (n=10 seedlings per treatment). Experiments were also undertaken to assess the efficacy of Composition 1 and fucoidan in enhancing root length in the presence or absence of plant pathogenic nematodes. Seedlings (×7 replication) were established in sand columns containing USGA specification sand and sprayed on a weekly basis with either Composition 1 or fucoidan. […] Fucoidan was applied at a rate equivalent to 600 g/Ha. Root knot nematodes of the species Meloidogyne minor were inoculated around the roots in week 1, as second stage juveniles. Roots were analysed using WinRHIZO image analysis system following a 25 days period.

In another test the test system is Perennial ryegrass. As to the kind of experiment: Pre-soaking seeds: early root growth. The conditions noted are these: seeds pre-soaked 16 hours, 7 day period. It is filed as in vivo. How it is done: as §1
The subject of test [2] is Creeping bentgrass, with or without Meloidogyne minor. As to the kind of experiment: Seedling root length in sand columns with or without Meloidogyne minor. It is filed as in vivo. The settings on record: weekly spray, 25 days, n = 7. How it is done:
as §1

The test system of test [3] is Perennial ryegrass, with or without Meloidogyne minor. Described as above. The settings on record: weekly spray, 25 days, n = 7. Type of test: in vivo. How it is done:
as §1

[4] abbreviates: inoculation with Meloidogyne minor.
The mark [5] stands for this setting: no inoculation with Meloidogyne minor.

For `OC[C@@H](O)[C@@H](O)[C@H](O)[C@H](O)CO` [Mannitol-alone, mannitol], the “Total Weight (g)” value in test [1] was 9652** g. For the same molecule, the “Marketable weight (g)” value in test [1] (>35 mm) was 9324* g. For the same molecule, in test [1] (>35 mm, listed as mannitol-alone), the “Marketable weight” value is recorded as 9324 g. Moreover, in test [1] (listed as mannitol-alone), the “Total Weight” value came out at 9652 g.
As to fucoidan, the “Mean Root length (mm)” value is on record as 39.1 ^a mm in the test with Creeping bentgrass; 48.9 ^b mm in the test with Perennial ryegrass (n = 10); 48.9 mm in the test with Perennial ryegrass (n = 10, listed as fucoidan). Moreover, the “mean root length (mm), +Mm” value in test [2] (setting [4]) is listed as 20.2^b mm; in test [3] (setting [4]) it was 102.2^b mm. The “mean root length (mm), −Mm” value is given as 27.1^b mm in test [2] (setting [5]) and 129.2^c mm in test [3] (setting [5]).
Regarding laminarin [Glucan-alone], the “Total Weight” value in test [1] was 10524 g. In addition, in test [1] (>35 mm), the “Marketable weight” value is reported as 10218 g.
